Source: the supplement of paper PMC13207355
Where a name gives a salt, the structure may show the parent alone.

Columns and labels:
Details in all cases: exposure time: 72 h
E21 [1] = patient-derived glioblastoma stem cells of mesenchymal subtype; test: phenotypic distance (Euclidean, principal components) from DMSO controls (arbitrary units); higher = stronger morphological change
FT3469 [2] = normal neural stem cell line; test: as above
E28 [3] = patient-derived glioblastoma stem cells of classical subtype; test: as above
E57 [4] = patient-derived glioblastoma stem cells of mesenchymal subtype; test: as above
E34 [5] = patient-derived glioblastoma stem cells of proneural subtype; test: as above
E13 [6] = patient-derived glioblastoma stem cells of classical subtype; test: as above
E31 [7] = patient-derived glioblastoma stem cells of proneural subtype; test: as above
E21 [8] = test: surviving fraction (nuclei count normalised to DMSO); higher = more cells surviving (less toxic)
FT3469 [9] = test: as above
E28 [10] = test: as above
E57 [11] = test: as above
E34 [12] = test: as above
E13 [13] = test: as above
E31 [14] = test: as above
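Wherever phenotypic distance (Euclidean, principal components) from DMSO controls is given: cell Painting imaging in 384-well plates, CellProfiler features reduced to at least 20 principal components, Euclidean distance versus same-plate DMSO vehicle wells (0.1% v/v), median over six images per well.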
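Wherever surviving fraction (nuclei count normalised to DMSO) is given: nuclei counted by high-content imaging of Hoechst-stained cells in laminin-coated 384-well plates, relative to 0.1% DMSO vehicle wells, with staurosporine as cell-death control.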

C=CC(=O)Nc1cc(Nc2nccc(-c3cn(C)c4ccccc34)n2)c(OC)cc1N(C)CCN(C)C [Osimertinib mesylate]
Details | phenotypic distance | surviving fraction
E13 [6], 4.1 nM | 0.974 | –
E13 [6], 12.3 nM | 0.598 | –
E13 [6], 37 nM | 0.826 | –
E13 [6], 111.1 nM | 0.647 | –
E13 [6], 333.3 nM | 1.84 | –
E13 [6], 1000 nM | 1.28 | –
E13 [6], 3000 nM | 2.96 | –
E13 [13], 4.1 nM | – | 0.883
E13 [13], 12.3 nM | – | 1
E13 [13], 37 nM | – | 0.978
E13 [13], 111.1 nM | – | 0.951
E13 [13], 333.3 nM | – | 1.03
E13 [13], 1000 nM | – | 0.935
E13 [13], 3000 nM | – | 0.547
E21 [1], 4.1 nM | 0.814 | –
E21 [1], 12.3 nM | 0.422 | –
E21 [1], 37 nM | 1.04 | –
E21 [1], 111.1 nM | 0.922 | –
E21 [1], 333.3 nM | 1.1 | –
E21 [1], 1000 nM | 1.12 | –
E21 [1], 3000 nM | 4.6 | –
E21 [8], 4.1 nM | – | 1.11
E21 [8], 12.3 nM | – | 0.955
E21 [8], 37 nM | – | 0.892
E21 [8], 111.1 nM | – | 1.05
E21 [8], 333.3 nM | – | 0.931
E21 [8], 1000 nM | – | 0.909
E21 [8], 3000 nM | – | 0.455
E28 [3], 4.1 nM | 0.567 | –
E28 [3], 12.3 nM | 0.684 | –
E28 [3], 37 nM | 0.633 | –
E28 [3], 111.1 nM | 1.15 | –
E28 [3], 333.3 nM | 0.864 | –
E28 [3], 1000 nM | 1.16 | –
E28 [3], 3000 nM | 2.16 | –
E28 [10], 4.1 nM | – | 0.973
E28 [10], 12.3 nM | – | 1.04
E28 [10], 37 nM | – | 0.86
E28 [10], 111.1 nM | – | 1.01
E28 [10], 333.3 nM | – | 0.864
E28 [10], 1000 nM | – | 0.922
E28 [10], 3000 nM | – | 0.496
E31 [7], 4.1 nM | 0.452 | –
E31 [7], 12.3 nM | 0.55 | –
E31 [7], 37 nM | 1.12 | –
E31 [7], 111.1 nM | 0.652 | –
E31 [7], 333.3 nM | 0.826 | –
E31 [7], 1000 nM | 1.22 | –
E31 [7], 3000 nM | 2.48 | –
E31 [14], 4.1 nM | – | 0.963
E31 [14], 12.3 nM | – | 0.947
E31 [14], 37 nM | – | 1.02
E31 [14], 111.1 nM | – | 0.92
E31 [14], 333.3 nM | – | 0.743
E31 [14], 1000 nM | – | 0.773
E31 [14], 3000 nM | – | 0.435
E34 [5], 4.1 nM | 0.472 | –
E34 [5], 12.3 nM | 0.514 | –
E34 [5], 37 nM | 0.843 | –
E34 [5], 111.1 nM | 0.747 | –
E34 [5], 333.3 nM | 1.66 | –
E34 [5], 1000 nM | 0.95 | –
E34 [5], 3000 nM | 1.31 | –
E34 [12], 4.1 nM | – | 0.904
E34 [12], 12.3 nM | – | 0.975
E34 [12], 37 nM | – | 0.973
E34 [12], 111.1 nM | – | 0.878
E34 [12], 333.3 nM | – | 1.13
E34 [12], 1000 nM | – | 0.996
E34 [12], 3000 nM | – | 0.702
E57 [4], 4.1 nM | 0.541 | –
E57 [4], 12.3 nM | 0.746 | –
E57 [4], 37 nM | 0.59 | –
E57 [4], 111.1 nM | 1.02 | –
E57 [4], 333.3 nM | 1.3 | –
E57 [4], 1000 nM | 1.38 | –
E57 [4], 3000 nM | 3.02 | –
E57 [11], 4.1 nM | – | 0.979
E57 [11], 12.3 nM | – | 0.953
E57 [11], 37 nM | – | 0.84
E57 [11], 111.1 nM | – | 0.864
E57 [11], 333.3 nM | – | 0.875
E57 [11], 1000 nM | – | 0.79
E57 [11], 3000 nM | – | 0.547
FT3469 [2], 4.1 nM | 0.624 | –
FT3469 [2], 12.3 nM | 0.753 | –
FT3469 [2], 37 nM | 0.623 | –
FT3469 [2], 111.1 nM | 0.801 | –
FT3469 [2], 333.3 nM | 0.702 | –
FT3469 [2], 1000 nM | 1.37 | –
FT3469 [2], 3000 nM | 1.12 | –
FT3469 [9], 4.1 nM | – | 0.963
FT3469 [9], 12.3 nM | – | 0.989
FT3469 [9], 37 nM | – | 1.02
FT3469 [9], 111.1 nM | – | 1.03
FT3469 [9], 333.3 nM | – | 0.843
FT3469 [9], 1000 nM | – | 1.07
FT3469 [9], 3000 nM | – | 0.638
